Source: patent US5235045A, “Non-azo naphthalimide dyes” (priority 1992, dated 1993)
Read-outs that look alike come from different tables or passages of the source.

System: H9 cells
Test: Effects on H9 cells of Ed6Br with prior activation by 420 nm light (Trypan Blue)
Type: cell-based
Details: Homo sapiens, H9, 24 h, read-out: % Viable Cells
Description: H9 cells were cultivated in RPMI-1640 medium containing an additional 10% fetal calf serum at 37.5° C. in air having added 5% CO2. A 5.46 ml aliquot of cell suspension containing 9.16×10^5 H9 cells per ml was harvested, the cells sedimented at 450 x g for 10 minutes and resuspended in fresh growth medium. Two hundred microliter aliquots of the suspension were centrifuged as above and the resulting cell pellet served for resuspension in dye plus medium suspension for this study.
Six milliliters of suspension of Cremophor EL micelles containing Ed6Br in RPMI-1640 containing 10% additional fetal calf serum was made by diluting a 2.5 millimeter solution of the dye in Cremophor EL to give an average Ed6Br concentration of […], and the resulting suspension divided into 2 three milliliter aliquots. One aliquot was irradiated with 420 #5 nm light filtered from a xenon arc lamp at an irradiance of 20 mW/cm^2 to a total fluence of 200 J/cm^2. The companion aliquot was wrapped in aluminum foil and handled in identical fashion to the irradiated sample. These two aliquots served as stocks for deforming effects of both previously irradiated and un-irradiated Ed6Br at different concentrations from 0 up to 100 mM on H9 cells kept in the dark. Dulutions of the stock dye suspension into additional fresh growth medium were made within 1 hour of light irradiation to give dye-medium suspensions with average Ed6Br concentrations of […] for both previously irradiated and dark dye samples. The H9 cell pellets were resuspended in these dye-Cremophor EL suspensions and held at 37.5° C. in an air atmosphere containing an additional 5% CO2. After 24 hrs. culture of the number of total and viable […] was determined by Trypan Blue exclusion using a hemocytometer and microscope for cell counting.

## CCCCCCNc1c(Br)cc2c3c(cccc13)C(=O)N(CCCCCC)C2=O [Compound VII, 3-bromo-4-(hexyl)amino-N-hexyl-1,8-naphthalimide]
No previous light activation
  viability at 1 µM: 72.7%
  viability at 10 µM: 77.2%
  viability at 25 µM: 57.9%
  viability at 50 µM: 27.4%
  viability at 75 µM: 33.9%
Previous light activation
  viability at 1 µM: 68.4%
  viability at 10 µM: 31.8%
  viability at 25 µM: 4.9%
  viability at 50 µM: 0%
  viability at 75 µM: 0%
